What all share (type): cell-based
One assay relates to HT29. As to the kind of experiment: NCI panel growth inhibition, sulforhodamine B. To be noted: Homo sapiens, HT-29; HT29, Colon cancer; drug for last 48 h of 72 h.
The subject of the next assay is SK-MEL-2. As to the kind of experiment: NCI panel growth inhibition, sulforhodamine B. To be noted: Homo sapiens; SK-MEL-2, Melanoma; drug for last 48 h of 72 h.
The test system of a further assay is HS 578T. Kind of assay: NCI panel growth inhibition, sulforhodamine B. To be noted: Homo sapiens, Breast cancer, drug for last 48 h of 72 h.
The subject of the next assay is NCI-H226. Kind of assay: NCI panel growth inhibition, sulforhodamine B. Particulars: Homo sapiens; NCI-H226, NSCLC; drug for last 48 h of 72 h.
The test system of a further assay is NCI-H322M. As to the kind of experiment: NCI panel growth inhibition, sulforhodamine B. To be noted: Homo sapiens, NSCLC, drug for last 48 h of 72 h.
A further assay deals with KM12. Kind of assay: NCI panel growth inhibition, sulforhodamine B. To be noted: Homo sapiens, KM12, KM12, Colon cancer; drug for last 48 h of 72 h.
A further assay deals with OVCAR-8. Kind of assay: NCI panel growth inhibition, sulforhodamine B. To be noted: Homo sapiens; OVCAR-8, Ovarian cancer; drug for last 48 h of 72 h.
Another assay concerns SN12C. Kind of assay: NCI panel growth inhibition, sulforhodamine B. To be noted: Homo sapiens, Renal cancer, drug for last 48 h of 72 h.
The next assay has as its system UACC-257. Kind of assay: NCI panel growth inhibition, sulforhodamine B. Particulars: Homo sapiens; UACC-257, Melanoma; drug for last 48 h of 72 h.
For the next assay, the system named is TK-10. Kind of assay: NCI panel growth inhibition, sulforhodamine B. To be noted: Homo sapiens; TK-10, Renal cancer; drug for last 48 h of 72 h.
Another assay concerns MALME-3M. As to the kind of experiment: NCI panel growth inhibition, sulforhodamine B. Particulars: Homo sapiens, Melanoma, drug for last 48 h of 72 h.
The subject of the next assay is NCI-H23. Kind of assay: NCI panel growth inhibition, sulforhodamine B. To be noted: Homo sapiens; NCI-H23, NSCLC; drug for last 48 h of 72 h.
A further assay deals with SK-MEL-5. Kind of assay: NCI panel growth inhibition, sulforhodamine B. Particulars: Homo sapiens; SK-MEL-5, Melanoma; drug for last 48 h of 72 h.
In another assay the test system is MDA-N. Kind of assay: NCI panel growth inhibition, sulforhodamine B. To be noted: Homo sapiens, Breast cancer, drug for last 48 h of 72 h.
The test system of the next assay is IGROV1. Kind of assay: NCI panel growth inhibition, sulforhodamine B. Particulars: Homo sapiens, IGROV-1; IGROV1, Ovarian cancer; drug for last 48 h of 72 h.
The test system of a further assay is RPMI-8226. Kind of assay: NCI panel growth inhibition, sulforhodamine B. Particulars: Homo sapiens; RPMI-8226, Leukemia; drug for last 48 h of 72 h.
Another assay has as its system NCI-H522. As to the kind of experiment: NCI panel growth inhibition, sulforhodamine B. Particulars: Homo sapiens; NCI-H522, NSCLC; drug for last 48 h of 72 h.
The next assay has as its system RXF-393. As to the kind of experiment: NCI panel growth inhibition, sulforhodamine B. To be noted: Homo sapiens; RXF-393, Renal cancer; drug for last 48 h of 72 h.
A further assay has as its system T-47D. As to the kind of experiment: NCI panel growth inhibition, sulforhodamine B. To be noted: Homo sapiens, T47D, Breast cancer, drug for last 48 h of 72 h.
The next assay concerns UO-31. Kind of assay: NCI panel growth inhibition, sulforhodamine B. To be noted: Homo sapiens; UO-31, Renal cancer; drug for last 48 h of 72 h.
The subject of the next assay is PC-3. Kind of assay: NCI panel growth inhibition, sulforhodamine B. To be noted: Homo sapiens; PC-3, Prostate cancer; drug for last 48 h of 72 h.
The next assay relates to SNB-19. As to the kind of experiment: NCI panel growth inhibition, sulforhodamine B. To be noted: Homo sapiens; SNB-19, CNS cancer; drug for last 48 h of 72 h.
For the next assay, the system named is HCT-15. Kind of assay: NCI panel growth inhibition, sulforhodamine B. Particulars: Homo sapiens; HCT-15, Colon cancer; drug for last 48 h of 72 h.
The subject of assay [1] is NCI's human cancer cell lines. Kind of assay: NCI panel growth inhibition, whole panel summary. Particulars: in vitro. An excerpt: Comparison of anticancer activities of the 1,3-substituted adamantane derivatives, 1,3-bis(4-aminophenyl)adamantane (1,3-DPANH2), 1,3-bis(4-(4-aminophenoxy)phenyl)adamantane (1,3-DPAONH2), 1,3-bis(4-(4-amino-3-hydroxy)phenyl)adamantane (1,3-DPA/OH/NH2) and 1,3-bis(4-(4-amino-2-trifluoromethylphenoxy)phenyl)adamantane (1,3-DPA/CF3/NH2) as shown in FIG. 1 were synthesized in the present invention. Those compounds were submitted to the National Cancer Institute for anticancer assay in culture against a standard panel of cell lines. […] To further confirm that the different substituents (CF3 and OH) on the phenyl ring of 1,3-DPAONH2 affect the growth inhibition of cancer cells. […] The transformations of 1,3-DPAONH2 to 1,3-DPA/OH/NH2 led to a remarked enhancement of anticancer activity toward all the tested cancer lines. The role of the OH group at the ortho position of the NH2 on growth inhibition is remarkable. In addition, one compound (1,3-DPA/OH/NH2) was confirmed to have an IC50 of <1 μM against one of the cells (BT-549 breast carcinoma). Comparison of anticancer activities of 1,3-substituted diaminophenyladamantane derivatives, the following order of potency against the tested cancer lines was observed: 1,3-DPA/OH/NH2>1,3-DPAONH2>1,3-DPANH2>1,3-DPA/CF3/NH2. […]

Experimental findings from US7365231B2, “Compound with antitumor activity and preparation method therefor” (National Taiwan University of Science & Technology, priority 2005, dated 2008) are described below.

As for `Nc1ccc(Oc2ccc(C3(c4ccc(Oc5ccc(N)c(O)c5)cc4)C4CC5CC(C4)CC3C5)cc2)cc1O` [DPA, 2,2-bis(4-(4-amino-3-hydroxyphenoxy)phenyl)adamantane], the half-inhibitory concentration (IC50) was determined as 1.81 µM with HT29; 1.69 µM in the assay on SK-MEL-2; 2.35 µM in the assay with HS 578T; 1.94 µM in the assay on NCI-H226; 1.41 µM with NCI-H322M; 2.02 µM with KM12. For the same molecule, the half-inhibitory concentration (IC50) in the assay on OVCAR-8 amounted to 1.68 µM; in the assay on SN12C, 1.83 µM; in the assay on UACC-257, 2.32 µM; in the assay with TK-10, 2.16 µM; in the assay with MALME-3M it was 2.02 µM; in the assay with NCI-H23 it was 1.84 µM. In addition, the IC50 came to 1.56 µM with SK-MEL-5; 2.14 µM in the assay on MDA-N; 1.75 µM in the assay on IGROV1; 1.92 µM in the assay with RPMI-8226; 1.6 µM in the assay with NCI-H522; 1.82 µM in the assay with RXF-393. For the same molecule, the IC50 is 4.13 µM in the assay with T-47D; 1.85 µM with UO-31; 1.6 µM in the assay with PC-3; 3.01 µM in the assay with SNB-19; 1.67 µM with HCT-15. Further, the “growth inhibitory activity against the tested cancer cell lines (in words)” value in assay [1] is “strong growth inhibitory activities”.
